Experimental data: US7115622B2, “Amido ether substituted imidazoquinolines” (3M Innovative Properties Company, priority 2000, dated 2006)

What was measured:
interferon (α) = assay: Cytokine Induction in Human Cells: interferon induction in PBMC; assay type: cell-based; design: key to Lowest Effective Concentration (μM) Interferon: *: no induction was seen at any of the tested concentrations; generally the highest concentration tested was 10 or 30 μM; conditions: 18 to 24 hours incubation, tested 30–0.014 μM, ELISA; for minimal effective concentration: read-out: Lowest Effective Concentration (μM) Interferon
Excerpt: (§1) An in vitro human blood cell system is used to assess cytokine induction. Activity is based on the measurement of interferon and tumor necrosis factor (α) (IFN and TNF, respectively) secreted into culture media as described by Testerman et. al. In “Cytokine Induction by the Immunomodulators Imiquimod and S-27609”, Journal of Leukocyte Biology, 58, 365–372 (September, 1995).
(§2) Whole blood from healthy human donors is collected by venipuncture into EDTA vacutainer tubes. Peripheral blood mononuclear cells (PBMC) are separated from whole blood by density gradient centrifugation using Histopaque®-1077. Blood is diluted 1:1 with Dulbecco's Phosphate Buffered Saline (DPBS) or Hank's Balanced Salts Solution (HBSS). The PBMC layer is collected and washed twice with DPBS or HBSS and resuspended at 4×10^6 cells/mL in RPMI complete. The PBMC suspension is added to 48 well flat bottom sterile tissue culture plates (Costar, Cambridge, Mass. or Becton Dickinson Labware, Lincoln Park, N.J.) containing an equal volume of RPMI complete media containing test compound.
(§3) The compounds are solubilized in dimethyl sulfoxide (DMSO). The DMSO concentration should not exceed a final concentration of 1% for addition to the culture wells. The compounds are generally tested at concentrations ranging from 30–0.014 μM.
(§4) The solution of test compound is added at 60 μM to the first well containing RPMI complete and serial 3 fold dilutions are made in the wells. The PBMC suspension is then added to the wells in an equal volume, bringing the test compound concentrations to the desired range (30–0.014 μM). The final concentration of PBMC suspension is 2×10^6 cells/mL. The plates are covered with sterile plastic lids, mixed gently and then incubated for 18 to 24 hours at 37° C. in a 5% carbon dioxide atmosphere.
(§5) Following incubation the plates are centrifuged for 10 minutes at 1000 rpm (˜200×g) at 4° C. The cell-free culture supernatant is removed with a sterile polypropylene pipet and transferred to sterile polypropylene tubes. Samples are maintained at −30 to −70° C. until analysis. The samples are analyzed for interferon (α) by ELISA and for tumor necrosis factor (α) by ELISA or IGEN Assay
Interferon (α) and Tumor Necrosis Factor (α) Analysis by ELISA Interferon (α) concentration is determined by ELISA using a Human Multi-Species kit from PBL Biomedical Laboratories, New Brunswick, N.J. Results are expressed in pg/mL.
(§6) The table below lists the lowest concentration found to induce interferon and the lowest concentration found to induce tumor necrosis factor for each compound.

[1] = tested on: tumor necrosis factor (α); assay: Cytokine Induction in Human Cells: tumor necrosis factor induction in PBMC; assay type: cell-based; design: key to Lowest Effective Concentration (μM) Tumor Necrosis Factor: *: no induction was seen at any of the tested concentrations; generally the highest concentration tested was 10 or 30 μM; conditions: 18 to 24 hours incubation, tested 30–0.014 μM, ELISA or IGEN assay; for minimal effective concentration: read-out: Lowest Effective Concentration (μM) Tumor Necrosis Factor
Excerpt: as §1, §2, §3, §4, §5
Tumor necrosis factor (α) (TNF) concentration is determined using ELISA kits available from Biosource International, Camarillo, Calif. Alternately, the TNF concentration can be determined by Origen® M-Series Immunoassay and read on an IGEN M-8 analyzer from IGEN International, Gaithersburg, Md. The immunoassay uses a human TNF capture and detection antibody pair from Biosource International, Camarillo, Calif. Results are expressed in pg/mL.
as §6

Structure (SMILES)	melting point	minimal effective concentration (interferon (α))	minimal effective concentration [1]	further results
COCCc1nc2c(N)nc3ccccc3c2n1CCOCCNC(=O)c1ccccc1 [Example 4, N-(2-{2-[4-amino-2-(2-methoxyethyl)-1H-imidazo[4,5-c]quinolin-1-yl]ethoxy}ethyl)benzamide]	184 to 187 °C			
CCOCc1nc2c(N)nc3ccccc3c2n1CCOCCNC(=O)c1ccccc1 [Example 72, N-(2-{2-[4-amino-2-(ethoxymethyl)-1H-imidazo[4,5-c]quinolin-1-yl]ethoxy}ethyl)benzamide]	154 to 156 °C			
COCCc1nc2c(N)nc3c(c2n1CCOCCN(C)C(=O)c1ccccc1)CCCC3 [Example 10, N-(2-{2-[4-amino-2-(2-methoxyethyl)-6,7,8,9-tetrahydro-1H-imidazo[4,5-c]quinolin-1-yl]ethoxy}ethyl)-N-methylbenzamide]	83 to 87 °C			
CCc1nc2c(N)nc3ccccc3c2n1CCOCCNC(=O)c1ccccc1 [Example 71, N-{2-[2-(4-amino-2-ethyl-1H-imidazo[4,5-c]quinolin-1-yl)ethoxy]ethyl}benzamide]	188 to 191 °C			
CCCCC(=O)NCCOCCn1cnc2c(N)nc3ccccc3c21 [Example 52]		10 µM	10 µM	
CCCCc1nc2c(N)nc3ccccc3c2n1CCOCCNC(=O)c1ccc(OC(F)(F)F)cc1 [Example 34]			10 µM	Lowest Effective Concentration (μM) Interferon (interferon (α)): *
Nc1nc2ccccc2c2c1ncn2CCOCCNC(=O)c1cccc(C(F)(F)F)c1 [Example 64]		10 µM		Lowest Effective Concentration (μM) Tumor Necrosis Factor [1]: *
CCC(COCCC1CCN(C(=O)CCc2ccccc2)CC1)n1cnc2c(N)nc3ccccc3c21 (stereo not drawn) [Example 43]		1 µM	10 µM	
Nc1nc2ccccc2c2c1ncn2CCOCCNC(=O)Cc1ccccc1 [Example 55]		1 µM	10 µM	
COCCc1nc2c(N)nc3c(c2n1CCOCCNC(=O)c1ccccc1)CCCC3 [Example 6, N-(2-{2-[4-amino-2-(2-methoxyethyl)-6,7,8,9-tetrahydro-1H-imidazo[4,5-c]quinolin-1-yl]ethoxy}ethyl)benzamide]	141 to 143 °C			
CCCCc1nc2c(N)nc3ccccc3c2n1CCOCCNC(=O)c1ccc(OC)cc1 [Example 27]		1 µM	10 µM	
CCCCC(=O)N1CCC(CCOCC(CC)n2cnc3c(N)nc4ccccc4c32)CC1 (stereo not drawn) [Example 36]		1 µM	1 µM	
N#Cc1ccc(C(=O)NCCOCCn2cnc3c(N)nc4ccccc4c32)cc1 [Example 57]		10 µM		Lowest Effective Concentration (μM) Tumor Necrosis Factor [1]: *
CCC(COCCC1CCN(C(=O)c2ccc3ccccc3c2)CC1)n1cnc2c(N)nc3ccccc3c21 (stereo not drawn) [Example 49]		1 µM	10 µM	
CCCCc1nc2c(N)nc3ccccc3c2n1CCOCCNC(=O)C1CCCCC1 [Example 19]		1 µM	10 µM	
CCC(COCCC1CCN(C(=O)COCc2ccccc2)CC1)n1cnc2c(N)nc3ccccc3c21 (stereo not drawn) [Example 48]		0.1 µM	10 µM	
COCCc1nc2c(N)nc3ccccc3c2n1CCOCCN(C)C(=O)c1ccccc1 [Example 8, N-(2-{2-[4-amino-2-(2-methoxyethyl)-1H-imidazo[4,5-c]quinolin-1-yl]ethoxy}ethyl)-N-methylbenzamide]	93.5 to 97 °C			
CCCCc1nc2c(N)nc3ccccc3c2n1CCOCCNC(=O)C1CC1 [Example 15]		0.1 µM	1 µM	
